{"source": "patent US5817840A", "about": "“Water soluble taxol derivatives” (The Scripps Research Institute, priority 1997, dated 1998)", "key": {"[1]": {"test": "Taxol release in human blood plasma at 37° C.", "type": "in vitro ADME", "experimental": "Protaxol 5 and N-cyclohexylbenzamide (as internal standard) were dissolved in acetonitrile and immediatley added to human plasma or phosphate buffer at pH 7.4. Samples-of protaxol 5 were incubated in each medium for specified times and then extracted with ethyl acetate as described by S. M. Longnecker, et al., Cancer Treat. Rep. 71, 53 (1987). Solvent was removed and the residue dissolved in acetonitrile and analysed by HPLC as already described. The peak areas for compound 5 and taxol were normalized to that of the internal standard using a calibration curve."}, "[2]": {"system": "RPMI-7666 (normal human PBLs)", "test": "Cytotoxicity (sulphorhodamine B), normal cell line, Table 1B", "type": "cell-based", "details": "72 h", "quoted_text": "(§3) The cytotoxicities were determined using the sulphorhodamine B assay method (Skehan, P. et al. J. Nat. Canc. Inst. 82, 1107 (1990))."}, "[3]": {"system": "NHDF (normal human dermal fibroblast)", "test": "Cytotoxicity, Example 8", "type": "cell-based", "details": "72 h", "experimental": "(§1) Tumor or normal cells were cultured in 96-well plates with the test compound in 200 μl of RPMI supplemented with 10% fetal bovine serum (Hyclone, Salt Lake City, Utah) at 37° C. in a humidified atmosphere containing 5% CO2 in air for 72 hours. Sulforhodamine B dissolved in 1% acetic acid was added, and the plates were incubated for 30 minutes at ambient temperature, washed with 1% acetic acid, and blotted. To the air-dried plates were added 100 μl of […] unbuffered TRIS base (pH 10.5) with shaking. The optical densities of the plates were measured with a microplate reader (Molecular Devices Thermomax) at 540 nm. The concentration of compound required to reduce the absorbance to 50% of control samples was recorded as IC50.\n(§2) NHDF: Normal human dermal fibroblast (available from Clouelics Corp., San Diego, Calif.); HLF-1: Normal human diploid lung; W1-38; Normal human diploid lung; CHO; Chinese hamster ovary; SK-MEL-28: Melanoma; CAPAN-1: Pancreatic carcinoma; H322: lung carcinoma; MCF-7; Breast carcinoma; BT-549; Human breast ductal carcinoma; OVCAR-3: Human ovarian carcinoma; HT-29: Human adenocarcinoma, colon; SIHA: Human squamous carcinoma crvx; 786-0: Human perirenal cell adenocarci; PC-3: Human prostate adenocarcinoma; HL-60: Human promyelomic leukemia; MOLT-4: Human T-cell leukemia. All cell lines except NHDF are available from the American Tissue Culture Collection, Rockville, Md."}, "[4]": {"system": "HT-29 (human adenocarcinoma, colon)", "test": "Cytotoxicity, Example 8", "type": "cell-based", "details": "HT-29, 72 h", "experimental": "as §1, §2"}, "[5]": {"system": "PC-3 (human prostate adenocarcinoma)", "test": "Cytotoxicity, Example 8", "type": "cell-based", "details": "72 h", "experimental": "as §1, §2"}, "[6]": {"system": "OVCAR-3 (human ovarian carcinoma)", "test": "Cytotoxicity, Example 8", "type": "cell-based", "details": "OVCAR-3, 72 h", "experimental": "as §1, §2"}, "MCF-7 (breast carcinoma) [7]": {"system": "MCF-7 (breast carcinoma)", "test": "Cytotoxicity, Example 8", "type": "cell-based", "details": "Homo sapiens, MCF7, 72 h", "experimental": "as §1, §2"}, "[8]": {"system": "786-0 (human perirenal cell adenocarci)", "test": "Cytotoxicity, Example 8", "type": "cell-based", "details": "786-0, 72 h", "experimental": "as §1, §2"}, "[9]": {"system": "HLF-1 (normal human diploid lung)", "test": "Cytotoxicity, Example 8", "type": "cell-based", "details": "HLF1, 72 h", "experimental": "as §1, §2"}, "H322 (lung carcinoma)": {"system": "H322 (lung carcinoma)", "test": "Cytotoxicity, Example 8", "type": "cell-based", "details": "NCI-H322, 72 h", "experimental": "as §1, §2"}, "[10]": {"system": "W1-38 (normal human diploid lung)", "test": "Cytotoxicity, Example 8", "type": "cell-based", "details": "W138, 72 h", "experimental": "as §1, §2"}, "SK-MEL-28 (melanoma)": {"system": "SK-MEL-28 (melanoma)", "test": "Cytotoxicity, Example 8", "type": "cell-based", "details": "Homo sapiens, SK-MEL-28, 72 h", "experimental": "as §1, §2"}, "[11]": {"system": "CAPAN-1 (pancreatic carcinoma)", "test": "Cytotoxicity, Example 8", "type": "cell-based", "details": "Homo sapiens, CAPAN-1, 72 h", "experimental": "as §1, §2"}, "[12]": {"system": "BT-549 (human breast ductal carcinoma)", "test": "Cytotoxicity, Example 8", "type": "cell-based", "details": "BT-549, 72 h", "experimental": "as §1, §2"}, "[13]": {"system": "S1HA (human squamous carcinoma crvx)", "test": "Cytotoxicity, Example 8", "type": "cell-based", "details": "72 h", "experimental": "as §1, §2"}, "[14]": {"system": "CHO (Chinese hamster ovary)", "test": "Cytotoxicity, Example 8", "type": "cell-based", "details": "Cricetulus griseus, 72 h", "experimental": "as §1, §2"}, "[15]": {"system": "CHO (normal human mammary)", "test": "Cytotoxicity (sulphorhodamine B), normal cell line, Table 1B", "type": "cell-based", "details": "Homo sapiens, 72 h"}, "L1210 (mouse leukaemia)": {"system": "L1210 (mouse leukaemia)", "test": "Cytotoxicity (sulphorhodamine B), cancer cell line, Table 1B", "type": "cell-based", "details": "L1210, 72 h", "quoted_text": "as §3"}, "NHDF (normal human skin)": {"system": "NHDF (normal human skin)", "test": "Cytotoxicity (sulphorhodamine B), normal cell line, Table 1B", "type": "cell-based", "details": "72 h", "quoted_text": "as §3"}, "MCF-7 (breast carcinoma) [16]": {"system": "MCF-7 (breast carcinoma)", "test": "Cytotoxicity (sulphorhodamine B), cancer cell line, Table 1B", "type": "cell-based", "details": "Homo sapiens, MCF7, 72 h", "quoted_text": "as §3"}, "HT-29 (colon carcinoma)": {"system": "HT-29 (colon carcinoma)", "test": "Cytotoxicity (sulphorhodamine B), cancer cell line, Table 1B", "type": "cell-based", "details": "Homo sapiens, HT-29, 72 h", "quoted_text": "as §3"}, "[17]": {"system": "BT-549 (breast carcinoma)", "test": "Cytotoxicity (sulphorhodamine B), cancer cell line, Table 1B", "type": "cell-based", "details": "Homo sapiens, BT-549, 72 h", "quoted_text": "as §3"}, "tubulin / microtubules": {"system": "tubulin / microtubules", "test": "Tubulin polymerization-depolymerization (CaCl2-induced depolymerization of microtubules)", "type": "biochemical", "details": "10^-6 M, 1.0 mg/mL tubulin", "experimental": "Tubulin polymerization to microtubules is promoted by GTP, whereas CaCl2 causes depolymerization of microtubules back to tubulin (FIG. 3A). […] The designed protaxol 5 was tested for its ability to stabilize microtubules formed from tubulin via the action of GTP. […] These findings are in agreement with the previously reported loss of activity resulting from blocking the C-2' hydroxyl group.\nTubulin polynerization-depolymerization experiments with taxol and designed protaxol 5 are illustrated in FIG. 3. CaCl2 -promoted depolymerization of microtubules was suppressed by taxol and protaxol 5 (after taxol release).\nThese measurements may be conducted at 37° C. following a recently developed procedure described by R. Merlock and W. Wrasidlo (Analytical Biochemistry, 1993). In each case 1.0 mM GTP may be employed to promote initial polymerization of tubulin.\nD: Tubulin (1.0 mg/mL) with protaxol 5 (10^-6 M) after release of taxol (as determined by HPLC, essentially quantitative conversion)."}, "[18]": {"test": "Water solubility in D2O by 1H NMR", "details": "compared to taxol", "experimental": "The solubilities of the synthesized protaxols in D2 O were determined by 1H NMR spectroscopy.\nThe resulting mixture was centrifuged for 20 minutes and the supernatant saturated solution was analysed by ^1 H NMR spectroscopy using a Bruker AMX-400 instrument and methanol or pyridine as internal standard. The concentration of the compound was determined by comparing several signals with the CH3 signal of methanol or the NCH signal of pyridine."}, "[19]": {"system": "PC-3 (prostate carcinoma)", "test": "Cytotoxicity (sulphorhodamine B), cancer cell line, Table 1B", "type": "cell-based", "details": "Homo sapiens, 72 h", "quoted_text": "as §3"}}, "note": "“Also recorded” adds a separate entry of the source.", "data": [{"smiles": "CC(=O)O[C@H]1C(=O)[C@@]2(C)[C@H]([C@H](OC(=O)c3ccccc3)[C@]3(O)C[C@H](OC(=O)[C@H](OC(=O)CS(=O)(=O)CC(=O)O)[C@@H](NC(=O)c4ccccc4)c4ccccc4)C(C)=C1C3(C)C)[C@]1(OC(C)=O)CO[C@@H]1C[C@@H]2O", "note": "[Compound 5]", "values": [{"measurement": "taxol release in human blood plasma (in words)", "setting": "[1]; compared to pH 7.4 buffer", "result": "accelerated release of taxol; also recorded: rapidly releasing taxol"}, {"measurement": "half-life", "setting": "[1]; human blood plasma", "result": "~1.67", "unit": "h"}, {"measurement": "IC50", "setting": "[2]", "result": 100, "unit": "µM"}, {"measurement": "IC50", "setting": "[3]", "result": 0.19, "unit": "µM"}, {"measurement": "IC50", "setting": "[4]", "result": 0.098, "unit": "µM"}, {"measurement": "IC50", "setting": "[5]", "result": 50, "unit": "µM"}, {"measurement": "IC50", "setting": "[6]", "result": 0.098, "unit": "µM"}, {"measurement": "IC50", "setting": "MCF-7 (breast carcinoma) [7]", "result": 61, "unit": "µM"}, {"measurement": "IC50", "setting": "[8]", "result": 0.13, "unit": "µM"}, {"measurement": "IC50", "setting": "[9]", "result": 13, "unit": "µM"}, {"measurement": "IC50", "setting": "H322 (lung carcinoma)", "result": 5, "unit": "µM"}, {"measurement": "IC50", "setting": "[10]", "result": 13, "unit": "µM"}, {"measurement": "IC50", "setting": "SK-MEL-28 (melanoma)", "result": 100, "unit": "µM"}, {"measurement": "IC50", "setting": "[11]", "result": 0.19, "unit": "µM"}, {"measurement": "IC50", "setting": "[12]", "result": 0.098, "unit": "µM"}, {"measurement": "IC50", "setting": "[13]", "result": 50, "unit": "µM"}, {"measurement": "IC50", "setting": "[14]", "result": 100, "unit": "µM"}, {"measurement": "IC50", "setting": "[15]", "result": 100, "unit": "µM"}, {"measurement": "IC50", "setting": "L1210 (mouse leukaemia)", "result": 10, "unit": "µM"}, {"measurement": "IC50", "setting": "NHDF (normal human skin)", "result": 1, "unit": "µM"}, {"measurement": "IC50", "setting": "MCF-7 (breast carcinoma) [16]", "result": 10, "unit": "µM"}, {"measurement": "IC50", "setting": "HT-29 (colon carcinoma)", "result": "< 0.001", "unit": "µM"}, {"measurement": "IC50", "setting": "[17]", "result": "< 0.001", "unit": "µM"}, {"measurement": "prevention of CaCl2-induced depolymerization of microtubules", "setting": "tubulin / microtubules; CaCl2 0.25 mM after 16 minutes, 37° C., initial, no prior release", "result": "failed to prevent CaCl2-induced disassembly of microtubules; also recorded: caused depolymerization of microtubules"}, {"measurement": "prevention of CaCl2-induced depolymerization of microtubules after taxol release", "setting": "tubulin / microtubules; after prolonged exposure / release of taxol", "result": "reached potencies comparable to that of taxol; also recorded: suppressed"}, {"measurement": "Water solubility (in words)", "setting": "[18]", "result": "good solubility"}, {"measurement": "IC50", "setting": "[19]", "result": 1, "unit": "µM"}]}]}
